In patent publication US20250255809A1, “OPHTHALMIC PHARMACEUTICAL COMPOSITIONS OF ROFLUMILAST” (Iolyx Therapeutics, Inc., priority 2021, published 2025):

Tests used:
[1] = as reported from the API manufacturer; cited from earlier work
[2] = Impact of dry heat sterilization on particle size of bulk roflumilast API; format: physicochemical; settings: bulk API dried at 137° C. for 20 hours
Method: The impact of dry heat sterilization on roflumilast was assessed. Bulk API of roflumilast was dried at 137° C. for 20 hours. The particle size of the roflumilast was measured. FIG. 14 provides a particle size distribution plot for the bulk API after dry heat sterilization.

O=C(Nc1c(Cl)cncc1Cl)c1ccc(OC(F)F)c(OCC2CC2)c1 [Roflumilast, N-(3,5-dichloropyrid-4-yl)-3-cyclopropylmethoxy-4-difluoromethoxybenzamide]
D90 of the API [1]: approximately 10 μm
impact of dry heat sterilization on particle size distribution [2]: does not significantly impact the particle size distribution
